# Patent publication US4525473A, “Cephalosporins” (Bristol-Myers Company, priority 1983, dated 1985)
# Like-named read-outs stand apart in the source and are kept apart here.
# Experiments:
# Type in all cases: cell-based
# [1] = tested on: Penicillin(PC)sensitive S. aureus; assay: MIC by two-fold serial agar dilution in Mueller-Hinton agar, Gp-Ia; details: Staphylococcus aureus
# Description: (§1) In the primary evaluation of the compounds of this invention, the Minimum Inhibitory Concentrations (MIC's) of the compounds were determined by the two-fold serial agar dilution method in Mueller-Hinton agar against 32 strains of test organisms in six groups.
# Gp-Ia: Penicillin(PC)sensitive S. aureus
# PCresistant S. aureus = assay: MIC by two-fold serial agar dilution in Mueller-Hinton agar, Gp-Ib; details: Staphylococcus aureus, Gp-Ib, 5 strains, PC-resistant S. aureus; read-out: Geometric Mean of MIC
# Description: as §1
# GpIb: PCresistant S. aureus
# [2] = tested on: Cephalothin(CET)sensitive E. coli (2 strains), K. pneumoniae (1) and P. mirabilis (2); assay: MIC by two-fold serial agar dilution in Mueller-Hinton agar, Gn-Ia; details: Gn-Ia, 5 strains, CET-sensitive; read-out: Geometric Mean of MIC
# Description: as §1
# GnIa: Cephalothin(CET)sensitive E. coli (2 strains), K. pneumoniae (1) an […]
# [3] = tested on: CETresistant E. coli (3) and K. pneumoniae (2); assay: MIC by two-fold serial agar dilution in Mueller-Hinton agar, Gn-Ib; details: Escherichia coli, read-out: Geometric Mean of MIC
# Description: as §1
# GnIb: CETresistant E. coli (3) and K. pneumoniae (2)
# [4] = tested on: M. morganii (1), E. cloacae (2) and S. marcescens (2); assay: MIC by two-fold serial agar dilution in Mueller-Hinton agar, Gn-II; details: read-out: Geometric Mean of MIC
# Description: as §1
# GnII: M. morganii (1), E. cloacae (2) and S. marcescens (2)
# P. aeruginosa = assay: MIC by two-fold serial agar dilution in Mueller-Hinton agar, Gn-III; details: Pseudomonas aeruginosa, Gn-III, 7 strains, P. aeruginosa; read-out: Geometric Mean of MIC
# Description: as §1
# [5] = Gp-Ia, 5 strains, PC-sensitive S. aureus, read-out: Geometric Mean of MIC
# [6] = Gn-Ib, 5 strains, CET-resistant
"MIC [3, 6]",Compound,"MIC [1, 5]",MIC (PCresistant S. aureus),MIC [2],MIC [3],MIC [4],MIC (P. aeruginosa),"MIC ([4]; Gn-II, 5 strains)","MIC ([1]; read-out: Geometric Mean of MIC, Gp-Ia, 5 strains, PC-sensitive S. aureus)"
,CO/N=C(\C(=O)NC1C(=O)N2C(C(=O)[O-])=C(C[N+]3(CCO)CCCC3)CSC12)c1csc(N)n1 (stereo not drawn) [Example 17],1.6 µg/mL,4.1 µg/mL,0.057 µg/mL,0.15 µg/mL,0.2 µg/mL,4.1 µg/mL,,
,"C#CCO/N=C(\C(=O)NC1C(=O)N2C(C(=O)[O-])=C(C[N+]3(C)CCCC3)CSC12)c1csc(N)n1 (stereo not drawn) [Example 18, 7-[(Z)-2-(2-Aminothiazol-4-yl)-2-propargyloxyiminoacetamido]-3-(1-methyl-1-pyrrolidiniomethyl)-3-cephem-4-carboxylate]",0.77 µg/mL,2.2 µg/mL,0.061 µg/mL,0.32 µg/mL,,4 µg/mL,0.36 µg/mL,
0.27 µg/mL,"CO/N=C(\C(=O)NC1C(=O)N2C(C(=O)[O-])=C(C[N+]3(C)CCCC3C)CS[C@H]12)c1csc(N)n1 (stereo partly drawn) [Example 19, 7-[(Z)-2-(2-Aminothiazol-4-yl)-2-methoxyiminoacetamido]-3-(1,2-dimethylpyrrolidinio)methyl-3-cephem-4-carboxylate]",1.4 µg/mL,3.8 µg/mL,0.078 µg/mL,,,6 µg/mL,0.27 µg/mL,
0.25 µg/mL,"CO/N=C(\C(=O)NC1C(=O)N2C(C(=O)[O-])=C(C[N+]3(C)CCSCC3)CS[C@H]12)c1csc(N)n1 (stereo partly drawn) [Example 20, 7-[(Z)-2-(2-Aminothiazol-4-yl)-2-methoxyiminoacetamido]-3-(4-methylthiomorpholinio)methyl-3-cephem-4-carboxylate]",1.2 µg/mL,4.1 µg/mL,0.064 µg/mL,,,3.7 µg/mL,0.25 µg/mL,
,"C=CC[N+]1(CC2=C(C(=O)[O-])N3C(=O)C(NC(=O)/C(=N\OC)c4csc(N)n4)[C@H]3SC2)CCCC1 (stereo partly drawn) [Example 21, 7-[(Z)-2-(2-Aminothiazol-4-yl)-2-methoxyiminoacetamido]-3-(N-allylpyrrolidinio)methyl-3-cephem-4-carboxylate]",,2.9 µg/mL,0.045 µg/mL,0.15 µg/mL,,6.5 µg/mL,0.18 µg/mL,1.1 µg/mL
